In patent US11976064B2, “Toll-like receptor agonists” (Pfizer Inc., priority 2019, dated 2024):

Target: T1, human toll like receptor 7 (hTLR7) (Homo sapiens, UniProt Q9NYK1)
T1 construct: host or cells: HEK293 (HEK-Blue hTLR7)
T1 sequence (Q9NYK1 27-1049): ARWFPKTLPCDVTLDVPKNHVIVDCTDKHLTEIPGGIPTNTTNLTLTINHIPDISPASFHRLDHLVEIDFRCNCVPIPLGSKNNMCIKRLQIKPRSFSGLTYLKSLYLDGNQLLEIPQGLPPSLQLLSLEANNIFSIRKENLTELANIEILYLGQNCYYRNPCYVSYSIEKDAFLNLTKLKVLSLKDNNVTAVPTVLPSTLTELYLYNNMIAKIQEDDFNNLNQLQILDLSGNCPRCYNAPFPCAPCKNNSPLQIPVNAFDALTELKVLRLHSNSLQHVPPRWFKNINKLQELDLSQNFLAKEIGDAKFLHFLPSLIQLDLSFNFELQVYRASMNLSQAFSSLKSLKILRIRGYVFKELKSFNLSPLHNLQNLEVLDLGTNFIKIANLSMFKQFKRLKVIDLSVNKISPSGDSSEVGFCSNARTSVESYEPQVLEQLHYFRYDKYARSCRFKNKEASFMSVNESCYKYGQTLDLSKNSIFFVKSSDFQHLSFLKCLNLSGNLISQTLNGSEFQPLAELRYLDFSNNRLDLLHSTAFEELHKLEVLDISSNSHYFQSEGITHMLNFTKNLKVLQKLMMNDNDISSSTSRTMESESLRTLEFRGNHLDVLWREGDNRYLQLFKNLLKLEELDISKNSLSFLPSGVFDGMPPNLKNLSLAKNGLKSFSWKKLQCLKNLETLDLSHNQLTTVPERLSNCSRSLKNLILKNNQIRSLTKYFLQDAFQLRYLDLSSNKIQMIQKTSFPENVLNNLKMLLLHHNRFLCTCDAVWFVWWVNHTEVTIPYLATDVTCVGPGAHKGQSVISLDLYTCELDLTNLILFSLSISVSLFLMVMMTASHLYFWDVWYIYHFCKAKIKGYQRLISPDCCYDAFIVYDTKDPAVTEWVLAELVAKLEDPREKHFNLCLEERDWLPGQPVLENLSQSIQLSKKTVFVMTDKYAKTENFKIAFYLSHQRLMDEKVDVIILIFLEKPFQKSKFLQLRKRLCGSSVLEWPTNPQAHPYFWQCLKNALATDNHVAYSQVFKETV
Experiment: hTLR7 cell functional assay (HEK-Blue hTLR7 SEAP reporter)
Assay type: cell-based
Settings: HEK293 cells stably overexpressing hTLR7, SEAP reporter; geometric mean when tested more than once
Description: The Examples described were tested for biological activity in functional cellular assays using HEK293 cells stably overexpressing human TLR7 or TLR8. The assays tested for the ability of each Example to stimulate secretion of interferon alpha (IFNα) in human primary blood mono nuclear cells (PBMC).
To determine the ability of each Example to activate the human toll like receptor 7 (hTLR7) or human toll like receptor 8 (hTLR8), cell-based reporter systems were utilized. HEK293 cells stably overexpressing either hTLR7 or hTLR8 along with a reporter gene containing an optimized secreted embryonic alkaline phosphatase gene (SEAP), under the control of the IFN-b minimal promoter fused to five NF-κB and AP-1-binding sites, were obtained from Invivogen (HEK-Blue™ hTLR7, cat #Hkb-ht1r7; HEK-Blue™ hTLR8, cat #Hkb-ht1r8). Stimulation of hTLR7 or hTLR8 in these cells activates NF-κB and AP-1 and induces the production of SEAP which can be quantified using an alkaline phosphatase detection reagent.
Cells were maintained in Dulbecco's Modified Eagle Media (DMEM) (containing Fetal Bovine Serum (FBS) heat inactivated (10%), Glutamax (2 mM), Penicillin/Streptomycin, Blasticidin (10 μg/ml), Zeocin (100 μg/ml) and Normocin (100 μg/ml)). On day one of the assay, Examples were prepared using 11-point half-log serial dilutions from a 10mM DMSO stock solution and 50 nl was spotted into 384-well Viewplates (PerkinElmer, cat #6007480). Positive control TLR7/8 agonist and negative control (DMSO, no Example) were also spotted within the assay plate and were used to determine percent effect during the analysis process. After resuspension in DMEM assay media containing FBS heat inactivated (10%), Glutamax (2 mM) and Penicillin/Streptomycin, 10,000 cells/20 μl/well were added to previously prepared plates. Plates were incubated overnight (16-20 hrs) at 37° C. in a 5% CO2 environment. Prewetted Microclime lids (Labcyte, LLS-0310) were used to prevent evaporation. On day two of the assay, QUANTI-Blue™ detection reagent was prepared by reconstituting QUANTI-Blue™ powder (InvivoGen, Rep-qb1) with 100 ml of sterile water and allowed to equilibrate to 37° C. for 15 minutes. 20 μl of QUANTI-Blue™ detection reagent was added to each well and plates were incubated at room temperature for 180 min. At the end of the incubation, plates were read on an Envision (Perkin Elmer) plate reader capturing absorbance at 650 nm.
Using Positive (TLR7/8 agonist) and Negative (DMSO) controls, the percent (%) effect was calculated for each Example using the following equation: effect=100−[100*{(Example−Positive Control)/(Negative Control−Positive Control)}]
The % effect at each concentration of each Example was calculated utilizing the ABase software suite (IBDS) and was relative to the amount of SEAP produced in the positive and negative control wells contained within each assay plate. The concentrations and % effect values for each Example were fit using a 4-parameter logistic model in ABase and the concentration of each Example that produced 50% response (EC50) was calculated.

Compound	EC50
CCOCc1nc2c(N)nc(C)c(C)c2n1CC(C)(CO)COC (single isomer, unassigned) [Example 7, 3-(4-amino-2-(ethoxymethyl)-6,7-dimethyl-1H-imidazo[4,5-c]pyridin-1-yl)-2-(methoxymethyl)-2-methylpropan-1-ol]	103 nM
CCOCc1nc2c(N)nc(C)c(C)c2n1CC(CO)CO [Example 1, 2-((4-amino-2-(ethoxymethyl)-6,7-dimethyl-1H-imidazo[4,5-c]pyridin-1-yl)methyl)propane-1,3-diol]	644 nM
CCOCc1nc2c(N)nc(C)c(C)c2n1CC(C)(CO)CO [Example 2, 2-((4-amino-2-(ethoxymethyl)-6,7-dimethyl-1H-imidazo[4,5-c]pyridin-1-yl)methyl)-2-methylpropane-1,3-diol]	54 nM
Cc1nc(N)c2nc(CC(F)(F)F)n(CC(C)(CO)CO)c2c1C [Example 8, 2-((4-amino-6,7-dimethyl-2-(2,2,2-trifluoroethyl)-1H-imidazo[4,5-c]pyridin-1-yl)methyl)-2-methylpropane-1,3-diol]	78 nM
CCc1nc2c(N)nc3ccccc3c2n1CC(C)(CO)CO [Example 15, 2-((4-amino-2-ethyl-1H-imidazo[4,5-c]quinolin-1-yl)methyl)-2-methylpropane-1,3-diol]	75 nM

Molecules with a lower EC50, results first:

EC50	Compound
49 nM	CCOCc1nc2c(N)nc(C)c(C)c2n1CC(C)(CO)COC (single isomer, unassigned) [Example 6, 3-(4-amino-2-(ethoxymethyl)-6,7-dimethyl-1H-imidazo[4,5-c]pyridin-1-yl)-2-(methoxymethyl)-2-methylpropan-1-ol]
29 nM	CCOCc1nc2c(N)nc3ccccc3c2n1CC(C)(CO)CO [Example 3, 2-((4-amino-2-(ethoxymethyl)-1H-imidazo[4,5-c]quinolin-1-yl)methyl)-2-methylpropane-1,3-diol]
27 nM	CCOCc1nc2c(N)nc(C)c(C)c2n1CC(CC)(CO)CO [Example 9, 2-((4-amino-2-(ethoxymethyl)-6,7-dimethyl-1H-imidazo[4,5-c]pyridin-1-yl)methyl)-2-ethylpropane-1,3-diol]
4 nM	CCCCc1nc2c(N)nc3ccccc3c2n1CC(C)(CO)CO [Example 10, 2-((4-amino-2-butyl-1H-imidazo[4,5-c]quinolin-1-yl)methyl)-2-methylpropane-1,3-diol]
9 nM	CCCCc1nc2c(N)nc3c(c2n1CC(C)(CO)CO)CCCC3 [Example 13, 2-((4-amino-2-butyl-6,7,8,9-tetrahydro-1H-imidazo[4,5-c]quinolin-1-yl)methyl)-2-methylpropane-1,3-diol]
14 nM	CCCCc1nc2c(N)nc3c(c2n1CC(C)(CO)CO)CCC3 [Example 14, 2-((4-amino-2-butyl-7,8-dihydrocyclopenta[b]imidazo[4,5-d]pyridin-1(6H)-yl)methyl)-2-methylpropane-1,3-diol]
19 nM	CCCc1nc2c(N)nc3ccccc3c2n1CC(C)(CO)CO [Example 16, 2-((4-amino-2-propyl-1H-imidazo[4,5-c]quinolin-1-yl)methyl)-2-methylpropane-1,3-diol]
